Earlier results on 2 compounds are cited in US20230405042A1, “Compositions to Modify Intestinal Nutrient Absorption, Methods of Making and Uses Thereof” (McMaster University, priority 2022, published 2023).

The series has as its system rodents. Conditions: oral delivery or injection in rodents.

In the case of `C[C@@H](O)C(=O)O` [D-lactate], the Liver glycogen formation entry is “leads to glycogen deposition in the liver”.

`C[C@H](O)C(=O)O` [L-lactate]: the Liver glycogen formation entry is on record as “hardly forms any liver glycogen”.
